Test results: PMC2777898, “CCR2 and CXCR4 regulate peripheral blood monocyte pharmacodynamics and link to efficacy in experimental autoimmune encephalomyelitis” (Journal of Inflammation (London, England), 2009)
pIC50: −log10 of the molar value.

Molecular target: T1, CCR2 (Mus musculus, UniProt P51683)
T1 construct: membranes from Ba/F3 cells transfected with mouse CCR2
Experiment: […]-rhCCL2 radioligand displacement, SPA, on membranes in mouse plasma
Assay type: binding

T1 sequence (P51683 whole entry): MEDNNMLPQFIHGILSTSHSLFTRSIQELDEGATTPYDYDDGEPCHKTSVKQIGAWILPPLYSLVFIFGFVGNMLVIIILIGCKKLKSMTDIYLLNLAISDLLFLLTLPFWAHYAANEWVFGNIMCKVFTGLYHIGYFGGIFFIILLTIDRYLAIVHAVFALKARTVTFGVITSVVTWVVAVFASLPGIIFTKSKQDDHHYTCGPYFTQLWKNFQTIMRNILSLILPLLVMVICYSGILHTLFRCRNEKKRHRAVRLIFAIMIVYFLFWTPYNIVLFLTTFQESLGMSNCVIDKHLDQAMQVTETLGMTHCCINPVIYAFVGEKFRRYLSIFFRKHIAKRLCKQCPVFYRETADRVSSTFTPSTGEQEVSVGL

With `CO[C@@H]1COCC[C@@H]1N[C@@H]1CC[C@@](C(=O)N2CCc3ncc(C(F)(F)F)cc3C2)(C(C)C)C1` [MK0812] the pIC50 was 7.72.
